Where a SMILES comes first, the peptide text is derived from it.
Columns and labels:
C3H/HeN mice = assay: Dermal toxicity; format: in vivo; details: 48 hr post-exposure, after residue removal; 125 mg/kg TP4 or 20% SDS; n=12 per group
Description: (§1) Figure 11 TP4 toxicity safety evaluations in New Zealand albino rabbits and C3H/HeN mice (A) Eye irritation test: Ocular appearances of controls, and rabbits treated with TP4 or SDS for 7 days. […] (B) Dermal toxicity: appearances of the skin of mice treated with TP4 at 48 hr post-exposure.
(§2) Oral toxicity: Acute oral toxicity was assessed in C3H/HeN mice with 6 animals per group, by single oral administration of TP4 (125 mg/kg). After dose administration, the animals were kept under observation for a minimum of 48 hr. The mortality rate and clinical signs were recorded. Sub-acute oral toxicity was assessed by administering 600 μg dose/day for 14 days. During dose administration, the animals were observed every day for any signs of toxicity. After the treatment period, the animals were kept under observation for 14 days. The morbidity, mortality, and other clinical signs were recorded and assessed. Dermal Toxicity was assessed by topical application of TP4 at 10 times the effective dose to skin at the dorsal side of mice. After administration, the animals were kept under observation for a minimum of 48 h. Clinical signs were noted if the animals were in the morbid stage or presented with any abnormalities. Eye irritation test in New Zealand white rabbits: Healthy young adult rabbits were used in the experiment. Eyes were treated with TP4, PBS (vehicle control), or 0.1% SDS (positive control). A repeated dose of 1 mg/kg was administered every day for 7 days. During the treatment period, the eyes were examined on days 1, 3, 5, and 7, and allowed to recover until day 14. Clinical signs were recorded during the test period, and grades were assigned for ocular reactions observed during each examination. All procedures, care, and handling of rabbits were approved by the laboratory animal ethics committee of National Taiwan Ocean University.

[1] = test system: New Zealand white rabbits; assay: Eye irritation test in rabbits (OECD 405); format: in vivo; details: for Abnormality iris grade / Chemosis grade / Conjunctivae Redness grade / Corneal opacity grade: OECD 405 grading
Description: as §1, §2

H. pylori 43504 = format: cell-based, Helicobacter pylori; details: 43504, 24 h
Description: (§3) H. pylori strains, American type cell cultures (ATCC) 43504, 51653, and 700392, and a clinical isolate CI-HC-028 (provided by Dr. Ming-Shiung Wu, Department of Internal Medicine, Gastrointestinal Hepatobilary Division, National Taiwan University Hospital, Taiwan) were used to determine the antimicrobial efficacy of TP4. Strains were cryopreserved at −80°C in brain heart infusion broth supplemented with 20% FBS. Bacteria were cultured under microaerobic conditions, as previously described. Briefly, bacteria were spread on brain heart infusion (BHI) agar plates supplemented with 10% (v/v) sheep blood, and plates were incubated at 37°C for 24 hr under a microaerobic atmosphere (Anaeropack-Anaero, Mitsubishi, Japan).
(§4) Frozen cultures were streaked onto BHI agar with 10% sheep blood, and incubated for 24 hr under microaerophilic conditions. H. pylori cells undergoing exponential growth were suspended in sterile phosphate-buffered saline (PBS), and adjusted to 0.05 OD using BHI broth; the resulting inoculum was dispensed onto a microtitre plate. Peptide TP4 was prepared at various concentrations (0.04 to 50 μg mL^−1) using PBS. Antibiotic resistant clinical isolate CI-HC-028 and three reference strains were used for susceptibility testing. All plates were incubated under microaerophilic conditions at 37°C overnight. The MIC was defined as the lowest concentration of the drug at which there was no visible growth. For quality control and comparative analyses, we examined the susceptibility of all four H. pylori strains to the antibiotics amoxicillin, clarithromycin, and metronidazole (Sigma Chemical Co., St. Louis, MO).

H. pylori 700392 = format: cell-based, Helicobacter pylori; details: 700392, 24 h
Description: as §3, §4

H. pylori CI-HC-028 [2] = format: cell-based, Helicobacter pylori; details: CI-HC-028, 24 h
Description: as §3, §4

H. pylori 43629 = format: cell-based, Helicobacter pylori; details: 43629, 24 h
H. pylori CI-HC-028 [3] = assay: Time-dependent killing of multidrug resistant clinical isolate; format: cell-based, Helicobacter pylori; details: CI-HC-028, at MIC
Description: Control peptide and H. pylori alone were used as controls. The cultures were monitored for 24 h, and aliquots were taken at 1, 3, 6, 12, and 24 h for bacterial enumeration. The data are means ± SEM. […] Approximately, 1 × 10^5 cells were incubated for 1 h, and then incubated with the MIC of TP4, amoxicillin, metronidazole, or clarithromycin (AMOX, METZ, and CLRN, respectively). The cultures were monitored for 24 h, and aliquots taken at 1, 3, 6, 12, and 24 h to determine surviving c.f.u. The data are means ± SEM
Overnight cultures of H. pylori were scraped and adjusted to OD 0.05, and 1 ml/tube inocula were prepared with BHI broth. Solutions of TP4 or clinical antibiotics were prepared with concentrations corresponding to their respective MIC, and PBS was used as a control. The tubes were incubated without shaking at 37°C under microaerophilic conditions, and sample aliquots were taken at 0, 1, 3, 6, 12, and 24 hr. The samples were serially diluted, and appropriate dilutions were plated in triplicate onto blood agar plates for bacterial counts. The results were expressed as mean log (c.f.u. mL^−1) with standard error.

H. pylori = assay: Induction of drug resistance by sub-inhibitory passaging (in vitro / in vivo passage); format: cell-based, Helicobacter pylori; details: sub-inhibitory doses, 10 serial passages
Description: (§5) Animals were sacrificed at each passage, and the MIC of TP4, amoxicillin, metronidazole, and clarithromycin were recorded for 10 serial passages. Passage points in the curves are means ± SEM. (MICs: standard MIC value; MICp: passage-induced MIC). (B) In vitro dose-OD fall kinetics were examined for TP4 alone and in combination with amoxicillin, metronidazole, or clarithromycin. […] The data shown are means ± SEM of two independent experiments
The drug resistance of bacteria to TP4 and clinical antibiotics was determined by in vitro culturing of H. pylori in sub-inhibitory concentrations of TP4 and antibiotics, followed by repeated in vivo passaging. H. pylori was administered to C3H/HeN mice and allowed to colonize the gut; subsequently pure colonies of H. pylori were isolated on EYE selective media. This step was repeated for 10 passages. During each passage, the MICs of TP4 and the conventional antibiotics were determined. All procedures, care, and handling of mice were approved by the laboratory animal ethics committee of National Taiwan Ocean University.

[4] = test system: metronidazole- and clarithromycin-resistant H. pylori strains; assay: Synergy of TP4 with antibiotics, in vitro dose-OD fall kinetics; format: cell-based, Helicobacter pylori; details: TP4 plus antibiotic
Description: as §5
Combination therapy often enhances antibiotic efficacy and mitigates the frequency at which drug resistance emerges. To determine the suitability of TP4 for combination therapy, we examined in vitro dose-OD fall kinetics of TP4 in combination with AMOX, CLRN, or METZ antibiotics; these three antibiotics are traditionally used as the first line of defense against H. pylori.

Structure (SMILES): CCCCCCCCCCCCOS(=O)(=O)[O-].[Na+] [SDS, reference compound]
- skin appearance, lesions (C3H/HeN mice): No obvious lesions
- Abnormality iris grade ([1]; Day 1): 0
- Chemosis grade ([1]; Day 1): 1.5
- Conjunctivae Redness grade ([1]; Day 1): 1
- Corneal opacity grade ([1]; Day 1, rabbit eye, daily for 7 days (TP4 1 mg/kg; SDS 0.1%)): 1
- Abnormality iris grade ([1]; Day 3): 0
- Chemosis grade ([1]; Day 3): 1.5
- Conjunctivae Redness grade ([1]; Day 3): 1
- Corneal opacity grade ([1]; Day 3): 1
- Abnormality iris grade ([1]; Day 5): 0
- Chemosis grade ([1]; Day 5): 2
- Conjunctivae Redness grade ([1]; Day 5): 1
- Corneal opacity grade ([1]; Day 5): 1
- Abnormality iris grade ([1]; Day 7): 0
- Chemosis grade ([1]; Day 7): 2
- Conjunctivae Redness grade ([1]; Day 7): 1
- Corneal opacity grade ([1]; Day 7): 1
- Abnormality iris grade ([1]; Recovery, Day 14): 0
- Chemosis grade ([1]; Recovery, Day 14): 1.5
- Conjunctivae Redness grade ([1]; Recovery, Day 14): 0.5
- Corneal opacity grade ([1]; Recovery, Day 14): 0.5
- ocular appearance ([1]; rabbits treated for 7 days, observed daily): severe lacrimation, swelling of the eyelids, and elevated blood vessels in conjunctivae

Structure (SMILES): CC(C)C[C@H](NC(=O)[C@@H](NC(=O)[C@H](CO)NC(=O)[C@H](CC(=O)O)NC(=O)[C@H](Cc1c[nH]c2ccccc12)NC(=O)[C@H](CC(=O)O)NC(=O)[C@@H](N)Cc1ccccc1)C(C)C)C(=O)N[C@@H](CCCCN)C(=O)NCC(=O)N[C@H](C(=O)N[C@@H](CCC(=O)O)C(=O)NCC(=O)N[C@@H](Cc1ccccc1)C(=O)N[C@H](C(=O)N[C@@H](CCCNC(=N)N)C(=O)NCC(=O)N[C@@H](Cc1ccc(O)cc1)C(=O)N[C@@H](Cc1ccccc1)C(N)=O)C(C)C)C(C)C [TP1] (H-FDWDSVLKGVEGFVRGYF-NH2)
- MIC (H. pylori 43504): > 12 µg/mL
- MIC (H. pylori 700392): > 12 µg/mL
- MIC (H. pylori CI-HC-028 [2]): > 12 µg/mL
- MIC (H. pylori 43629): > 12 µg/mL

Structure (SMILES): CC[C@H](C)[C@H](NC(=O)[C@H](CC(C)C)NC(=O)[C@H](CO)NC(=O)[C@H](Cc1c[nH]cn1)NC(=O)[C@@H](NC(=O)[C@H](Cc1c[nH]cn1)NC(=O)[C@H](CCCCN)NC(=O)CNC(=O)[C@@H](NC(=O)[C@H](CO)NC(=O)[C@H](Cc1ccccc1)NC(=O)[C@H](CC(C)C)NC(=O)CNC(=O)CNC(=O)[C@@H](NC(=O)[C@@H](NC(=O)[C@H](Cc1c[nH]cn1)NC(=O)[C@H](Cc1c[nH]cn1)NC(=O)[C@@H](NC(=O)[C@@H](N)Cc1ccccc1)[C@@H](C)CC)[C@@H](C)CC)[C@@H](C)CC)C(C)C)[C@@H](C)CC)C(=O)N[C@@H](Cc1c[nH]cn1)C(=O)NCC(=O)N[C@@H](Cc1c[nH]cn1)C(N)=O [TP3] (H-FIHHIIGGLFSVGKHIHSLIHGH-NH2)
- MIC (H. pylori 43504): 8 to 12 µg/mL
- MIC (H. pylori 700392): 8 to 12 µg/mL
- MIC (H. pylori CI-HC-028 [2]): 8 to 12 µg/mL
- MIC (H. pylori 43629): 8 to 12 µg/mL

Structure (SMILES): CC[C@H](C)[C@H](NC(=O)[C@H](CC(C)C)NC(=O)[C@H](CCC(=O)O)NC(=O)[C@H](CCC(N)=O)NC(=O)[C@H](CC(C)C)NC(=O)[C@@H](NC(=O)[C@H](CCCCN)NC(=O)[C@H](CCC(N)=O)NC(=O)[C@@H](NC(=O)[C@@H](NC(=O)[C@H](CCC(=O)O)NC(=O)CNC(=O)[C@H](CO)NC(=O)[C@@H](NC(=O)[C@H](CCC(N)=O)NC(=O)[C@H](CCCCN)NC(=O)CNC(=O)[C@H](CCC(N)=O)NC(=O)[C@H](CC(C)C)NC(=O)[C@@H](N)CCC(N)=O)C(C)C)C(C)C)C(C)C)C(C)C)C(=O)N[C@@H](CCC(N)=O)C(=O)N[C@@H](CO)C(=O)N[C@H](C(=O)N[C@@H](C)C(=O)N[C@@H](CCCCN)C(=O)N1CCC[C@H]1C(N)=O)C(C)C [TP5] (H-QLQGKQVSGEVVQKVLQELIQSVAKP-NH2)
- MIC (H. pylori 43504): >12 µg/mL
- MIC (H. pylori 700392): >12 µg/mL
- MIC (H. pylori CI-HC-028 [2]): >12 µg/mL
- MIC (H. pylori 43629): >12 µg/mL

Structure (SMILES): CC[C@H]1OC(=O)[C@H](C)[C@@H](O[C@H]2C[C@@](C)(OC)[C@@H](O)[C@H](C)O2)[C@H](C)[C@@H](O[C@@H]2O[C@H](C)C[C@H](N(C)C)[C@H]2O)[C@](C)(OC)C[C@@H](C)C(=O)[C@H](C)[C@@H](O)[C@]1(C)O [clarithromycin]
- time taken to 90% reduction of c.f.u. (H. pylori CI-HC-028 [3]): > 24 h
- drug resistance index MICp/MICs (H. pylori): gradually increased from passage 3 to the last passage
- reduction of the MIC of the antibiotic in combination with TP4 [4]: one-half

Structure (SMILES): Cc1ncc([N+](=O)[O-])n1CCO [metronidazole]
- course of cell count in time kill (H. pylori CI-HC-028 [3]; 24 h): initial decrease in cell count, but gradually lost activity
- drug resistance index MICp/MICs (H. pylori): gradually increased from passage 3 to the last passage
- reduction of the MIC of the antibiotic in combination with TP4 [4]: one-half

From paper PMC4536990, “Efficacy of the antimicrobial peptide TP4 against Helicobacter pylori infection: in vitro membrane perturbation via micellization and in vivo suppression of host immune responses in a mouse model” (Oncotarget, 2015)
